Measurements taken from publication PMC8269107, “Lipidation of Temporin-1CEb Derivatives as a Tool for Activity Improvement, Pros and Cons of the Approach” (International Journal of Molecular Sciences, 2021).
Where a SMILES comes first, the peptide text is derived from it. The star is where a group is joined. Lauroyl = CCCCCCCCCCCC(=O)*

Tested on: S. aureus
Experiment: LIVE/DEAD BacLight bacterial viability
Type: cell-based, Staphylococcus aureus
Conditions: 0.39-25 µg/mL, 3 and 6 h of co-incubation
Protocol: Evaluation of the bacterial viability in the presence or absence of the tested compounds was performed according to the protocols developed for the laboratory kit LIVE/DEAD ®® BacLight TM Bacterial Viability Kits (Molecular Probes Europe BV, Amsterdam, The Netherlands). Briefly, late log phase cultures of E. coli and S. aureus in Luria-Bertani broth were harvested by centrifugation at 4000× g, the supernatant was removed, and pellets were resuspended in sterile water solution of 0.85% NaCl. Again, bacterial cells were centrifuged under the same conditions. In order to remove traces of growth, the medium washing step was repeated twice. At the end, pellets were resuspended in a fresh sterile 0.85% NaCl solution and diluted, yielding suspensions of E. coli, containing about 2 × 10^8 CFU/mL, and S. aureus with about 2 × 10^7 CFU/mL. Subsequently, 90 µL of bacterial suspensions (E. coli or S. aureus, respectively) were transferred to 96-well microtiter plates and 10 µL of the tested peptides were added to final concentrations ranging from 0.39 µg/mL to 25 µg/mL. […] Fluorescence was read with excitation wavelength set at 485 nm and emission wavelengths set at 530 nm (for green dye) and 630 nm (red dye) by means of CLARIOstar®® plate reader (BMG LABTECH, Germany).

Compound: CCCCCCCCCCCC(=O)N[C@H](C(=O)N[C@@H](CCCCN)C(=O)N[C@@H](CCCCN)C(=O)N[C@H](C(=O)N[C@@H](CC(C)C)C(=O)N[C@@H](CO)C(=O)N[C@@H](CCCCN)C(=O)N[C@H](C(=O)N[C@@H](CCCCN)C(=O)N[C@@H](CCCCN)C(=O)N[C@@H](CC(C)C)C(=O)N[C@@H](CC(C)C)C(N)=O)[C@@H](C)CC)[C@@H](C)CC)[C@@H](C)CC [Compound C12-DK5] (Lauroyl-IKKILSKIKKLL-NH2)
- relative viability of S. aureus (live/dead): most active
